Measurements as given in patent US6706506B2, “Detection of epithelial cell cancers and precancerous conditions” (priority 2000, dated 2004).

Tests used:
[1] = tested on: RA hydroxylase (CYP26) gene; experiment: Northern blot analysis of RA hydroxylase (CYP26) gene in other tumor lines and normal cell strains; assay type: cell-based, human; settings: other tumor lines or normal cell strains cultured with or without RA
Description: (§1) Total cellular RNA was isolated from cultured cells using RNA Stat-60 according to the manufacturer's instruction (Tel-Test, Friendswood, Tex.). RNA was electrophoretically fractionated by size on 1% agarose/2.2 M formaldehyde gels, transferred to nylon filters by blotting, and attached to the filters using a UV Stratalinker 1800. The cDNA probes used in this analysis were radiolabeled with [^32P]dCTP using a random primer labeling kit (Boehringer Mannheim, Indianapolis, Ind.) according to the manufacturer's directions. Glyceraldehyde phosphate dehydrogenase cDNA was used as a probe for Northern blots as described previously (Guo, et al. Cancer Res. 1998, 58:166-176; Chen, et al. J. Biol. Chem. 1996, 271:14971-14980). AHD-2 cDNA, isolated from a murine liver cDNA library by this laboratory (Chen, Mol. Pharm. 1994, 46:88-96), was used as a probe; this cDNA encodes an aldehyde dehydrogenase class I enzyme, also called ALDH-1 in human. The human LRAT cDNA clone was an Eco RI fragment (840 bp) as described (Ruiz, et al. J. Biol. Chem. 1999, 274:3834-3841). The human neutral, bile salt independent retinyl ester hydrolase and the hepatic, bile sale dependent retinyl ester hydrolase were EST clones #g4069398 and #g2237729, respectively, from Genome Systems (St. Louis, Mo.). […]

[2] = tested on: RA hydroxylase (CYP26) gene; experiment: Northern blot analysis of RA hydroxylase (CYP26) gene in MCF-7; assay type: cell-based, human; settings: MCF-7 following retinoic acid addition
Description: as §1

LRAT mRNA = experiment: Northern blot analysis of LRAT transcripts after culture with retinoic acid; assay type: cell-based, human; settings: 1 μM retinoic acid for 48 h; HUVEC, CCD42-SK, GM0970, HMEC, HNBE, NT2
Description: as §1

[3] = tested on: normal human epidermal keratinocytes (NHEK); experiment: [^3H]retinol esterification in NHEK; assay type: cell-based; settings: 15 h culture
Description: (§2) All retinoid solutions and samples were handled under red or dim light. […] A separate control consisting of labeling medium without cells was included during the incubation period. Cells and one-fourth of the media were collected. Cells were washed once with 0.5 ml of phosphate-buffered saline (PBS) and removed from the monolayer in 0.5 ml PBS by scraping. Samples were stored at −70° C. until retinoid extraction. The cell numbers were counted from parallel dishes from each treatment at the time of cell harvest. The retinoids were extracted as described previously (McLean, et al. Clin. Chem. 1982, 28:693-696). Non-radiolabeled retinoid standards were added to the samples prior to extraction. Briefly, 350 μl acetonitrile/butanol (50:50, v/v), 0.1% butylated hydroxytoluene (BHT) was added to 0.5 ml of cells or medium samples. The mixtures were vortexed thoroughly for 30 sec. After addition of 300 μl of a saturated (1.3 kg/liter) K2HPO4 solution and thorough mixing, the samples were centrifuged for 10 min at 3000 g. […] The HPLC analysis was performed using a Waters Millenium system (Waters Corp.) to separate the various retinoids. […] Non-radiolabeled retinoid standards were run concurrently and monitored at a wavelength of 340 nm while a Packard A-500 radiochromatography detector (Packard Instruments, Downers Grove, Ill.) was used to monitor the labeled retinoids. […]

[4] = tested on: SCC-40 squamous cell carcinoma line; experiment: [^3H]retinol pulse chase in SCC-40; assay type: cell-based, human
Description: (§3) For the pulse chase experiments, the cells were cultured for 24 h in 100 nM [^3H]retinol. Cells were then rinsed three times with warm PBS over a 30 minute period, and then incubated in growth medium without [^3H]retinol for an additional one to eight days. At various times following the removal of [^3H]retinol from the medium, dishes of cells were harvested and retinoids were extracted and subjected to HPLC analysis.
(§4) The retinoids were extracted as described previously (McLean, et al. Clin. Chem. 1982, 28:693-696). Non-radiolabeled retinoid standards were added to the samples prior to extraction. […]
(§5) The HPLC analysis was performed using a Waters Millenium system (Waters Corp.) to separate the various retinoids. […] Non-radiolabeled retinoid standards were run concurrently and monitored at a wavelength of 340 nm while a Packard A-500 radiochromatography detector (Packard Instruments, Downers Grove, Ill.) was used to monitor the labeled retinoids. […]
(§6) Therefore, in this series of experiments the cells were cultured in the presence of 100 nM [^3H]retinol and 900 nM retinol in the medium for 24 h, followed by the removal of the [^3H]retinol from the medium. The cells were washed several times, and then dishes of cells were harvested at various times following the removal of [^3H]retinol from the medium, retinoids were extracted from the cells, and the [^3H]retinoids were analyzed by HPLC.

[5] = tested on: human umbilical vein endothelial cells (HUVEC); experiment: [^3H]retinol metabolism in HUVEC; assay type: cell-based; settings: 15 h culture, 50 nM [^3H]retinol
Description: as §2

[6] = tested on: SCC-12 skin squamous carcinoma line; experiment: [^3H]retinol esterification in SCC-12; assay type: cell-based, human; settings: SCC-12, 22 h culture, 50 nM
Description: (§7) The retinoids were extracted as described previously (McLean, et al. Clin. Chem. 1982, 28:693-696). Non-radiolabeled retinoid standards were added to the samples prior to extraction. Briefly, 350 μl acetonitrile/butanol (50:50, v/v), 0.1% butylated hydroxytoluene (BHT) was added to 0.5 ml of cells or medium samples. The mixtures were vortexed thoroughly for 30 sec. After addition of 300 μl of a saturated (1.3 kg/liter) K2HPO4 solution and thorough mixing, the samples were centrifuged for 10 min at 3000 g. The upper organic layer was collected and transferred to an injector vial for automated HPLC analysis.
The HPLC analysis was performed using a Waters Millenium system (Waters Corp.) to separate the various retinoids. Samples were applied to an analytical 5 μm reverse-phase C18 column (Vydac, Hesperia, Calif.) at a flow rate of 1.5 ml/min. The gradient consisted of a 35 min linear gradient from 15 mM ammonium acetate, pH 6.5, in water to 85% acetonitrile in a 10 min linear gradient from 85% acetonitrile to acetonitrile-dichloromethane (80:20) followed by a 15 min hold. Non-radiolabeled retinoid standards were run concurrently and monitored at a wavelength of 340 nm while a Packard A-500 radiochromatography detector (Packard Instruments, Downers Grove, Ill.) was used to monitor the labeled retinoids. […]

[7] = tested on: normal epithelial cell strains HMEC, ADO74, NHEK, OKP-7; experiment: [^3H]retinol esterification in normal epithelial cell strains; assay type: cell-based, human; settings: 50 nM [^3H]retinol in the medium
Description: as §2

[8] = tested on: MCF-7 breast carcinoma cell line; experiment: [^3H]retinol esterification in MCF-7; assay type: cell-based, human; settings: MCF-7, 22 h culture, 50 nM
Description: as §2

OKP-7 cells = experiment: [^3H]retinol pulse chase in OKP-7; assay type: cell-based, human
Description: as §3, §7
(§8) The HPLC analysis was performed using a Waters Millenium system (Waters Corp.) to separate the various retinoids. Samples were applied to an analytical 5 μm reverse-phase C18 column (Vydac, Hesperia, Calif.) at a flow rate of 1.5 ml/min. […] Non-radiolabeled retinoid standards were run concurrently and monitored at a wavelength of 340 nm while a Packard A-500 radiochromatography detector (Packard Instruments, Downers Grove, Ill.) was used to monitor the labeled retinoids. […]
as §6

[9] = tested on: MDA-MB-231 breast carcinoma line; experiment: [^3H]retinol pulse chase in MDA-MB-231; assay type: cell-based, human
Description: as §3, §4, §5, §6

ADO74 cells = experiment: [^3H]retinol pulse chase in ADO74; assay type: cell-based, human
Description: as §3, §7, §8, §6

[10] = tested on: fibroblast cell strains GM0970 and CCD42-SK; experiment: [^3H]retinol metabolism in normal fibroblast cell strains; assay type: cell-based, human; settings: 15-24 h culture in the presence of [^3H]retinol
Description: as §2

[11] = tested on: SCC-40 carcinoma line from the soft palate; experiment: [^3H]retinol esterification in SCC-40; assay type: cell-based, human; settings: SCC-40, 22 h exposure, 50 nM
Description: as §2

[12] = tested on: normal human bronchial epithelial cells (NHBE); experiment: [^3H]retinol esterification in NHBE; assay type: cell-based; settings: 15 h culture
Description: as §2

[13] = OKP-7, four to eight days after [^3H]retinol removal
[14] = ADO74, four to eight days after [^3H]retinol removal

CC1=C(/C=C/C(C)=C/C=C/C(C)=C/C(=O)O)C(C)(C)CCC1 [retinoic acid, all-trans retinoic acid]
expression of RA hydroxylase (CYP26) gene [1]: not expressed at detectable levels
expression of RA hydroxylase (CYP26) gene [2]: strongly expressed
effect on levels of LRAT mRNA (LRAT mRNA): a slight increase in LRAT mRNA

[^3H]retinol
esterification of [^3H]retinol to retinyl esters [3]: extensive esterification
time after removal by which no [^3H]retinol is detectable intracellularly ([4]; SCC-40): ≤ 24 h
retinyl esters at the time of [^3H]retinol removal ([4]; SCC-40, day 0): no detectable retinyl esters
retinyl esters found [5]: only trace amounts of retinyl esters were found
[^3H]retinol esterification [6]: some [^3H]retinol esterification
time by which all of the [^3H]retinol in the medium had been esterified [7]: 6 to 8 h
[^3H]retinol esterification [8]: did not exhibit [^3H]retinol esterification
intracellular concentration of [^3H]retinyl esters (OKP-7 cells; OKP-7, four days after removal of [^3H]retinol, 100 nM [^3H]retinol and 900 nM retinol for 24 h): approximately 26 μM
intracellular concentration of [^3H]retinoic acid (OKP-7 cells; [13]): 1 to 2 µM
intracellular concentration of [^3H]retinol (OKP-7 cells; [13]): 3 to 10 µM
time after removal by which no [^3H]retinol is detectable intracellularly ([9]; MDA-MB-231): ≤ 24 h
retinyl esters at the time of [^3H]retinol removal ([9]; MDA-MB-231, day 0): no detectable retinyl esters
intracellular concentration of [^3H]retinyl esters (ADO74 cells; ADO74, four days after removal of [^3H]retinol, 100 nM [^3H]retinol and 900 nM retinol for 24 h): ~30 µM
intracellular concentration of [^3H]retinoic acid (ADO74 cells; [14]): 1 to 2 µM
intracellular concentration of [^3H]retinol (ADO74 cells; [14]): 3 to 10 µM
retinol metabolism [10]: Essentially no retinol metabolism occurred
[^3H]retinol esterification [11]: did not exhibit any significant [^3H]retinol esterification
esterification of [^3H]retinol to retinyl esters [12]: extensive esterification
